Assay results reported in patent publication US20220002314A1 (priority 2018, published 2022).
Where two headings read alike, the source gives them in different places.

Key:
[1] = biological target: Human α2δ-1 subunit of Cav2.2 calcium channel (Homo sapiens, UniProt P54289); assay: biochemical; type: binding
Human μ-opioid receptor = Human μ-opioid receptor (Homo sapiens, UniProt P35372); assay: biochemical; type: binding
Chain of Human μ-opioid receptor (P35372 whole entry): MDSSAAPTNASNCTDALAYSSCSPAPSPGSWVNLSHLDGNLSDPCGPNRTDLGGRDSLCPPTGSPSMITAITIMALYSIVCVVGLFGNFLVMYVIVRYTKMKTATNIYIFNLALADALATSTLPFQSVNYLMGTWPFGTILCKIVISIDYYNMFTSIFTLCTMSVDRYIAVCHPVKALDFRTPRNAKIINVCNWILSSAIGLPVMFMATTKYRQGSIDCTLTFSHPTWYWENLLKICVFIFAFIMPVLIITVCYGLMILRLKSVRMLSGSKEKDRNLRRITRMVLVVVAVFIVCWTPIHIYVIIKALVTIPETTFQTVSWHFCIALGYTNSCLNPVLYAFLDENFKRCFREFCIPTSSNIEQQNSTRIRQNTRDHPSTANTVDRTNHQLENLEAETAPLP

Chain of Human α2δ-1 subunit of Cav2.2 calcium channel (P54289 25-1103): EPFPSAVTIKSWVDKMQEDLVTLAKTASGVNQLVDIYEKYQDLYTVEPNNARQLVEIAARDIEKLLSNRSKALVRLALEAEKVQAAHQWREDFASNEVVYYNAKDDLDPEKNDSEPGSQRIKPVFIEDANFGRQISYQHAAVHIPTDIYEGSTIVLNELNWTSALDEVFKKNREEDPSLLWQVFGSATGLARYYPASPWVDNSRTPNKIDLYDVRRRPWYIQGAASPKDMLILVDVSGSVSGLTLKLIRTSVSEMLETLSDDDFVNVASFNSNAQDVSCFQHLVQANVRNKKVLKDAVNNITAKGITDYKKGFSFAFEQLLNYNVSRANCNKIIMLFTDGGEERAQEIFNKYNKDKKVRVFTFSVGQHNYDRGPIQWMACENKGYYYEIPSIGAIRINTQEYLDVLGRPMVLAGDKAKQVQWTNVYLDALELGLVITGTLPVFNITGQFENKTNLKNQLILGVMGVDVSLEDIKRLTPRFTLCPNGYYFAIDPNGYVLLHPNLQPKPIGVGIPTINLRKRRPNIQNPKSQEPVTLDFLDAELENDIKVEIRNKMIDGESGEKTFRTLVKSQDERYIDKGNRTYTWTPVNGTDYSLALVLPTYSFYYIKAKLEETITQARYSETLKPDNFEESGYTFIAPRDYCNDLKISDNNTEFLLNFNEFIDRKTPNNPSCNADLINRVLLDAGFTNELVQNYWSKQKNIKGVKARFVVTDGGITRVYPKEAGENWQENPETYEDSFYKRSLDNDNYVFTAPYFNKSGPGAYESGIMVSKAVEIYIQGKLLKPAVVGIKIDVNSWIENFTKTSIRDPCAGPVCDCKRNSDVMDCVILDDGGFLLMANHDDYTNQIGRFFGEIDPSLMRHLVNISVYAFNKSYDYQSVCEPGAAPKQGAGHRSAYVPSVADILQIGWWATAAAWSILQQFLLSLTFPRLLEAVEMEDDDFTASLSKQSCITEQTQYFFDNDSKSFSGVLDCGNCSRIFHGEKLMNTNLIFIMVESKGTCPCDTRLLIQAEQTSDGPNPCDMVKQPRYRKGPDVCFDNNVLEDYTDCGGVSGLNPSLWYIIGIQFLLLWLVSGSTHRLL

Ki ([1]; read-out: α2δ-1 binding) [nM]	Ki (Human μ-opioid receptor; read-out: μ-binding) [nM]	SMILES	Ki [1] [nM]	Ki (Human μ-opioid receptor) [nM]
–	–	CCC[C@H](c1nc2ccc(Br)cc2c(=O)n1CC)[C@H]1CCNCC1(F)F (single isomer, unassigned) [Example 189]	< 500	> 500
–	–	CCCC(c1nc2ccc(Br)cc2c(=O)n1CC)N1C[C@@H](C)N[C@@H](C)C1 (stereo partly drawn) [Example 1, 6-Bromo-2-(1-((3S,5R)-3,5-dimethylpiperazin-1-yl)butyl)-3-ethylquinazolin-4(3H)-one]	< 500	> 500
–	–	CCCC(c1nc2ccccc2c(=O)n1C)N1C[C@@H](C)N[C@@H](C)C1 (stereo partly drawn) [Example 2, 2-(1-((3S,5R)-3,5-dimethylpiperazin-1-yl)butyl)-3-methylquinazolin-4(3H)-one]	< 500	> 500
–	–	CCCC(c1nc2cc(C)ccc2c(=O)n1CC)N1C[C@@H](C)N[C@@H](C)C1 (stereo partly drawn) [Example 4, 2-(1-((3S,5R)-3,5-dimethylpiperazin-1-yl)butyl)-3-ethyl-7-methylquinazolin-4(3H)-one]	< 500	> 500
500 to 5000	> 500	CCCC(c1nc2c(Br)c(OC)ccc2c(=O)n1CC)N1C[C@@H](C)N[C@@H](C)C1 (stereo partly drawn) [Example 5, 8-bromo-2-(1-((3S,5R)-3,5-dimethylpiperazin-1-yl)butyl)-3-ethyl-7-methoxyquinazolin-4(3H)-one]	–	–
–	–	CCCC(c1nc2cc(OC)ccc2c(=O)n1CC)N1C[C@@H](C)N[C@@H](C)C1 (stereo partly drawn) [Example 6, 2-(1-((3S,5R)-3,5-dimethylpiperazin-1-yl)butyl)-3-ethyl-7-methoxyquinazolin-4(3H)-one]	< 500	> 500
–	–	CCCC(c1nc2cc(C(=O)OC)ccc2c(=O)n1CC)N1C[C@@H](C)N[C@@H](C)C1 (stereo partly drawn) [Example 7, methyl 2-(1-((3S,5R)-3,5-dimethylpiperazin-1-yl)butyl)-3-ethyl-4-oxo-3,4-dihydroquinazoline-7-carboxylate]	< 500	100 to 500
–	–	CCCC(c1nc2cc(Br)ccc2c(=O)n1CC)N1C[C@@H](C)N[C@@H](C)C1 (stereo partly drawn) [Example 9, 7-bromo-2-(1-((3S,5R)-3,5-dimethylpiperazin-1-yl)butyl)-3-ethylquinazolin-4(3H)-one]	< 500	> 500
–	–	CCCC(c1nc2cc(O)ccc2c(=O)n1C)N1C[C@@H](C)N[C@@H](C)C1 (stereo partly drawn) [Example 10, 2-(1-((3S,5R)-3,5-dimethylpiperazin-1-yl)butyl)-7-hydroxy-3-methylquinazolin-4(3H)-one]	< 500	> 500
–	–	CCCC(c1nc2cc(F)ccc2c(=O)n1CC)N1C[C@@H](C)N[C@@H](C)C1 (stereo partly drawn) [Example 11, 2-(1-((3S,5R)-3,5-dimethylpiperazin-1-yl)butyl)-3-ethyl-7-fluoroquinazolin-4(3H)-one]	< 500	> 500
–	–	CCCC(c1nc2ccc(O)cc2c(=O)n1CC)N1C[C@@H](C)N[C@@H](C)C1 (stereo partly drawn) [Example 12, 2-(1-((3S,5R)-3,5-dimethylpiperazin-1-yl)butyl)-3-ethyl-6-hydroxyquinazolin-4(3H)-one]	< 500	> 500
–	–	CCCC(c1nc2cccc(Br)c2c(=O)n1CC)N1C[C@@H](C)N[C@@H](C)C1 (stereo partly drawn) [Example 14, 5-bromo-2-(1-((3S,5R)-3,5-dimethylpiperazin-1-yl)butyl)-3-ethylquinazolin-4(3H)-one]	< 500	> 500
–	–	CCCC(c1nc2cccc(O)c2c(=O)n1CC)N1C[C@@H](C)N[C@@H](C)C1 (stereo partly drawn) [Example 15, 2-(1-((3S,5R)-3,5-dimethylpiperazin-1-yl)butyl)-3-ethyl-5-hydroxyquinazolin-4(3H)-one]	< 500	> 500
–	–	CCCC(c1nc2ccc(Br)cc2c(=O)n1C)N1C[C@@H](C)N[C@@H](C)C1 (stereo partly drawn) [Example 16, 6-bromo-2-(1-((3S,5R)-3,5-dimethylpiperazin-1-yl)butyl)-3-methylquinazolin-4(3H)-one]	< 500	> 500
–	–	CCCC(c1nc2cc(Br)ccc2c(=O)n1C)N1C[C@@H](C)N[C@@H](C)C1 (stereo partly drawn) [Example 17, 7-bromo-2-(1-((3S,5R)-3,5-dimethylpiperazin-1-yl)butyl)-3-methylquinazolin-4(3H)-one]	< 500	> 500
–	–	CCCC(c1nc2cc(F)c(Br)cc2c(=O)n1CC)N1C[C@@H](C)N[C@@H](C)C1 (stereo partly drawn) [Example 18, 6-bromo-2-(1-((3S,5R)-3,5-dimethylpiperazin-1-yl)butyl)-3-ethyl-7-fluoroquinazolin-4(3H)-one]	< 500	> 500
–	–	CCCC(c1nc2cc(C)c(Br)cc2c(=O)n1CC)N1C[C@@H](C)N[C@@H](C)C1 (stereo partly drawn) [Example 19, 6-bromo-2-(1-((3S,5R)-3,5-dimethylpiperazin-1-yl)butyl)-3-ethyl-7-methylquinazolin-4(3H)-one]	< 500	> 500
> 5000	> 500	CCCC(c1nc2c(C)cc(Br)cc2c(=O)n1CC)N1C[C@@H](C)N[C@@H](C)C1 (stereo partly drawn) [Example 20, 6-bromo-2-(1-((3S,5R)-3,5-dimethylpiperazin-1-yl)butyl)-3-ethyl-8-methylquinazolin-4(3H)-one]	–	–
–	–	CCCC(c1nc2ccc(Br)c(C)c2c(=O)n1CC)N1C[C@@H](C)N[C@@H](C)C1 (stereo partly drawn) [Example 21, 6-bromo-2-(1-((3S,5R)-3,5-dimethylpiperazin-1-yl)butyl)-3-ethyl-5-methylquinazolin-4(3H)-one]	< 500	> 500
–	–	CCCC(c1nc2ccc(Br)c(F)c2c(=O)n1CC)N1C[C@@H](C)N[C@@H](C)C1 (stereo partly drawn) [Example 22, 6-bromo-2-(1-((3S,5R)-3,5-dimethylpiperazin-1-yl)butyl)-3-ethyl-5-fluoroquinazolin-4(3H)-one]	< 500	> 500
–	–	CCCC(c1nc2ccc(Br)c(Cl)c2c(=O)n1CC)N1C[C@@H](C)N[C@@H](C)C1 (stereo partly drawn) [Example 23, 6-bromo-5-chloro-2-(1-((3S,5R)-3,5-dimethylpiperazin-1-yl)butyl)-3-ethylquinazolin-4(3H)-one]	< 500	> 500
–	–	CCCC(c1nc2ccc(NCC)cc2c(=O)n1CC)N1C[C@@H](C)N[C@@H](C)C1 (stereo partly drawn) [Example 24, 2-(1-((3S,5R)-3,5-dimethylpiperazin-1-yl)butyl)-3-ethyl-6-(ethylamino)quinazolin-4(3H)-one]	< 500	> 500
–	–	CCCC(c1nc2cc(NCC)ccc2c(=O)n1CC)N1C[C@@H](C)N[C@@H](C)C1 (stereo partly drawn) [Example 25, 2-(1-((3S,5R)-3,5-dimethylpiperazin-1-yl)butyl)-3-ethyl-7-(ethylamino)quinazolin-4(3H)-one]	< 500	> 500
500 to 5000	> 500	CCCC(c1nc2cc(N(CC)C(=O)OC(C)(C)C)ccc2c(=O)n1CC)N1C[C@@H](C)N[C@@H](C)C1 (stereo partly drawn) [Example 26, tert-butyl (2-(1-((3S,5R)-3,5-dimethylpiperazin-1-yl)butyl)-3-ethyl-4-oxo-3,4-dihydroquinazolin-7-yl)(ethyl)carbamate]	–	–

SMILES	Ki ([1]; read-out: α2δ-1 binding) [nM]	Ki (Human μ-opioid receptor; read-out: μ-binding) [nM]	Ki [1] [nM]	Ki (Human μ-opioid receptor) [nM]
CCCC(c1nc2c(Br)cccc2c(=O)n1CC)N1C[C@@H](C)N[C@@H](C)C1 (stereo partly drawn) [Example 13, 8-bromo-2-(1-((3S,5R)-3,5-dimethylpiperazin-1-yl)butyl)-3-ethylquinazolin-4(3H)-one]	–	> 500	> 5000	–
CCC[C@@H](c1nc2ccccc2c(=O)n1CC)N1C[C@@H](C)N[C@@H](C)C1 [Example 33, 2-((S)-1-((3S,5R)-3,5-Dimethylpiperazin-1-yl)butyl)-3-ethylquinazolin-4(3H)-one]	500 to 5000	–	–	–
